This assay has as its system HDF normal diploid fibroblast cells. Put plainly: MTT assay, HDF. The settings on record: Homo sapiens, Fibroblast, 72 h, read-out: MTT HDF IC50. In kind it is cell-based, human. As to the method:
Compounds are tested for their ability to inhibit cell proliferation and cell viability. The metabolic conversion of 3-(4,5-dimethylthiazol-2-yl)-2,5-diphenyltetrazolium bromide (MTT, Sigma #M2128) to a reduced form is a commonly used measure of cellular viability. Following is the procedure:
Cells are maintained in 75 cm^2 tissue culture flasks until ready for use. The cells are grown and plated for the assay in Dulbecco's modified Eagle's media (DMEM) containing 10% fetal bovine serum. For example, the following cell lines can be used: a) human foreskin fibroblasts (HFF); b) HT29 (human colon carcinoma cell line); c)MDA-MB-468 (human breast carcinoma cell line); d) RKO (human colon adenocarcinoma cell line); e) SW620 (human colon carcinoma cell line); f) A549 (human lung carcinoma cell line); and g) MIA PACA (human pancreatic carcinoma cell line). Cells are maintained at 37° C. in 10% CO2, 90% humidified air. Cells are plated in 96-well tissue culture plates at the densities listed below. […]
Cells are returned to incubator and allowed to proliferate in the presence of compound for 72 h before addition of MTT. […] Quantitation of metabolic reduction of MTT in each plate is performed by reading optical density at 570 nm wavelength on a Molecular Devices UVmax microplate reader. Growth inhibition curves and 50% inhibitory concentrations are determined using Microsoft Excel. […]
(In general: Tetrazolium assays rely on reduction of a dye to a coloured formazan, in cell work by metabolically active cells.)

Some results are limits rather than exact numbers.

By IC50 is commonly meant the concentration at which inhibition is half-maximal. Consider `O=C1Nc2ccc3ncsc3c2C1=CNc1ccc(S(=O)(=O)Nc2ccccn2)cc1` [Example 72, 4-[(7-Oxo-6,7-dihydro-1-thia-3,6-diaza-as-indacen-8-ylidenemethyl)-amino]-N-pyridin-2-yl-benzenesulfonamide], for which the IC50 was over 5 µM.

These data come from patent US6541503B2, “Substituted oxindole derivatives as protein tyrosine kinase and as protein serine/threonine kinase inhibitors” (SmithKline Beecham Corporation, priority 1997, dated 2003).
